{"source": "patent US5550139A", "about": "“Serine protease inhibitors” (The Wichita State University, priority 1994, dated 1996)", "key": {"[1]": {"target": "T1, human leukocyte elastase (HLE) (Homo sapiens, UniProt P08246)", "T1 construct": "purchased Elastin Products Co., Owensville, Mo", "T1 sequence (P08246 30-247 limits assumed)": "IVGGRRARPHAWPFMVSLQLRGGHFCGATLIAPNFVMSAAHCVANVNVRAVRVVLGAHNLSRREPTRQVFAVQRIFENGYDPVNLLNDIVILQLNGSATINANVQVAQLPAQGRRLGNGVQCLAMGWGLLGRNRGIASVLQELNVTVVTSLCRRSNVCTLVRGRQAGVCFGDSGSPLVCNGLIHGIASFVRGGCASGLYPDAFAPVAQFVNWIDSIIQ", "assay": "Inactivation of human leukocyte elastase (kobs/[I])", "type": "biochemical", "description": "(§1) An in vitro assay can be used to screen compounds of the invention for the ability to reduce or inhibit serine proteinase activity. The human leukocyte elastase (HLE), cathepsin G (Cath G), and proteinase-3 assays have each been described (Groutas et al., J. Med. Chem. 32:1607-1611, 1989; Groutas et al., Arch. Biochem. Biophys. 294:144-146, 1992; Kao et al., J. Clin. Invest. 82:1963-1973, 1988, each incorporated by reference herein). The pseudo first-order inactivation rate constants (kobs) were obtained from plots of ln(vt /vo) vs t, and expressed in terms of the apparent second-order inactivation rate constant, kobs /[I] M^-1 s^-1 (Tables 1-7). Tables 1-7 disclose the activity of preferred compounds of the invention as inhibitors of HLE and Cath G. Table 7 discloses the activity of Compounds 4A (C) and 3E (D) as inhibitors of Proteinase-3 activity. Compounds (A) and (B) have been disclosed previously (Groutas et al., Bioorganic and Med. Chem. 1(4):273-277, 1993; Groutas et al., J. Med. Chem. 36:3178, 1993).\nXII. Materials: Human leukocyte elastase was purchased from Elastin Products Co., Owensville, Mo.\n(§2) Human leukocyte cathepsin G was obtained from Athens Research and Technology, Athens, Ga. Methoxysuccinyl Ala-Ala-Pro-Val p-nitroanilide and methoxysuccinyl Ala-Ala-Pro-Phe p-nitroanilide were purchased from Sigma Chemicals Co., St. Louis, Mo. Baker-analyzed 60-200 mesh silica gel was used for flash chromatography."}, "cathepsin G (Cath G)": {"target": "T2, cathepsin G (Cath G) (Homo sapiens, UniProt P08311)", "T2 construct": "purchased Athens Research and Technology, Athens, Ga", "T2 sequence (P08311 21-244 limits assumed)": "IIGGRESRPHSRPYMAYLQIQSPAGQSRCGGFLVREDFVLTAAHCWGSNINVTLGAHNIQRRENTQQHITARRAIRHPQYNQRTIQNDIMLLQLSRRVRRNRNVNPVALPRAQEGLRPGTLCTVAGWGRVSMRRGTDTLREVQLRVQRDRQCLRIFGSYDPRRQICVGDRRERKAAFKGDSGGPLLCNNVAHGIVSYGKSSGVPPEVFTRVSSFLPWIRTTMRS", "assay": "Inactivation of human leukocyte cathepsin G (kobs/[I])", "type": "biochemical", "conditions": "for kinact/KI: pH 7.5", "procedure": "Human leukocyte cathepsin G (1.33 uM) is incubated with compound 8 (133 uM) (a) or compound 10 (13.3 uM) (b) in 0.1M HEPES buffer, pH 7.5, and 10% DMSO. Aliquots were withdrawn at different time intervals and assayed for enzymatic activity using methoxysuccinyl Ala-Ala-Pro-Phe p-nitroanilide.\nHuman leukocyte cathepsin G (1.48 μM was incubated with inhibitor 5A (1.48 μM in 0.1M HEPES buffer, pH 7.5, and 1% DMSO. Aliquots were withdrawn at different time intervals and assayed for enzymatic activity using methoxysuccinyl Ala-Ala-Pro-Phe p-nitroanilide.\nas §1, §2"}, "Proteinase-3": {"target": "T3, Proteinase-3 (Homo sapiens, UniProt P24158)", "T3 sequence (P24158 28-248 limits assumed)": "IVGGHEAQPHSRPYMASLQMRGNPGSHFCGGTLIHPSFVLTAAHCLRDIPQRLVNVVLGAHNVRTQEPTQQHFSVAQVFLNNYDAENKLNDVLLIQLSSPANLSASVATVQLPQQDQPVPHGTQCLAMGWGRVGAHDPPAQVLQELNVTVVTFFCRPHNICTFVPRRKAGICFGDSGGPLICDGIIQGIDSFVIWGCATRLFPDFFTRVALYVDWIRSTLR", "assay": "Proteinase-3 inhibition", "type": "biochemical", "set-up": "% Proteinase-3 Inhibition: concentration or dose not given beside the values", "conditions": "Table 7", "description": "as §1"}, "[2]": {"system": "neutrophil diapedesis (peritonitis)", "assay": "Inhibition of neutrophil diapedesis after experimentally induced (starch) peritonitis", "type": "in vivo, rat", "conditions": "8 mg/kg i.v. single dose", "procedure": "Each compound (A-D) was individually injected into the tail vein of a rat in a single dose (8 mg/kg). After injection, peritonitis was induced in the rat by an IP (intraperitoneal) injection of 1 ml of a 0.1% soluble starch solution. After 4 hours, the peritoneal cavity was lavaged with saline in order to determine the number and type of cells responding to peritonitis. Cell numbers were determined by a Coulter counter and cell type (e.g. lymphocytes, neutrophils, macrophages and monocytes) by standard Cytospin and Giemsa staining. Cell number and type was evaluated after IP injection of saline (negative control, no inflammation), starch (positive control, inflammation) or starch with IV injection of an inhibitor (experimental, inflammation). Inhibitors were dissolved in DMSO prior to administration."}}, "data": [{"smiles": "O=C1C(Cc2ccccc2)CS(=O)(=O)N1CF", "note": "(centres unmarked) [Compound 1D, 4-benzyl-2-(fluoromethyl)isothiazolidin-3-one 1,1 dioxide]", "values": [{"measurement": "kinact/KI", "setting": "[1]; Table 5", "value": 160, "unit": "M⁻¹ s⁻¹"}, {"measurement": "kinact/KI", "setting": "cathepsin G (Cath G); Table 5", "value": 2700, "unit": "M⁻¹ s⁻¹"}]}, {"smiles": "C[C@@H](NC(=O)OCc1ccccc1)C(=O)OCN1C(=O)C(Cc2ccccc2)CS1(=O)=O", "note": "(some centres unmarked) [Compound 9B]", "values": [{"measurement": "kinact/KI", "setting": "[1]; Table 3", "value": 300, "unit": "M⁻¹ s⁻¹"}, {"measurement": "kinact/KI", "setting": "cathepsin G (Cath G); Table 3", "value": 1820, "unit": "M⁻¹ s⁻¹"}]}, {"smiles": "CC(C)(C)OC(=O)CN1[C@@H](Cc2ccccc2)C(=O)N(CF)S1(=O)=O", "note": "[drawing 93 R = CH2 COOt-BOC]", "values": [{"measurement": "% Proteinase-3 Inhibition", "setting": "Proteinase-3", "value": 33, "unit": "%"}]}, {"smiles": "CN1[C@@H](Cc2ccccc2)C(=O)N(CF)S1(=O)=O", "note": "[Compound 2A, (S)-4-Benzyl-2-fluoromethyl-5-methyl-3-oxo-1,2,5-thiadiazolidine 1.1-dioxide]", "values": [{"measurement": "kinact/KI", "setting": "[1]; Table 2", "value": 1320, "unit": "M⁻¹ s⁻¹"}, {"measurement": "kinact/KI", "setting": "cathepsin G (Cath G); Table 2", "value": 750, "unit": "M⁻¹ s⁻¹"}]}, {"smiles": "O=C(CSc1ccccc1)OCN1C(=O)c2ccccc2S1(=O)=O", "values": [{"measurement": "% Proteinase-3 Inhibition", "setting": "Proteinase-3", "value": 66, "unit": "%"}]}, {"smiles": "C[C@@H](NC(=O)OC(C)(C)C)C(=O)OCN1C(=O)C(Cc2ccccc2)CS1(=O)=O", "note": "(some centres unmarked) [Compound 10B]", "values": [{"measurement": "kinact/KI", "setting": "[1]; Table 3", "value": 310, "unit": "M⁻¹ s⁻¹"}, {"measurement": "kinact/KI", "setting": "cathepsin G (Cath G); Table 3", "value": 560, "unit": "M⁻¹ s⁻¹"}]}, {"smiles": "O=C1C(Cc2ccccc2)CS(=O)(=O)N1CF", "note": "(centres unmarked) [drawing 96]", "values": [{"measurement": "Proteinase-3 Inhibition (in words)", "setting": "Proteinase-3", "value": "inactive"}]}, {"smiles": "O=C(OCN1C(=O)C(Cc2ccccc2)CS1(=O)=O)[C@@H]1CCCN1C(=O)OCc1ccccc1", "note": "(some centres unmarked) [Compound 5B]", "values": [{"measurement": "kinact/KI", "setting": "[1]; Table 3", "value": 220, "unit": "M⁻¹ s⁻¹"}, {"measurement": "kinact/KI", "setting": "cathepsin G (Cath G); Table 3", "value": 7700, "unit": "M⁻¹ s⁻¹"}]}, {"smiles": "Nc1ccc(O)c(C(=O)OCN2C(=O)C(Cc3ccccc3)CS2(=O)=O)c1", "note": "(centres unmarked) [Compound 5]", "values": [{"measurement": "kinact/KI", "setting": "[1]; Table 1A", "value": 470, "unit": "M⁻¹ s⁻¹"}, {"measurement": "kinact/KI", "setting": "cathepsin G (Cath G); Table 1A", "value": 3330, "unit": "M⁻¹ s⁻¹"}]}, {"smiles": "O=C(CNC(=O)OCc1ccccc1)OCN1C(=O)C(Cc2ccccc2)CS1(=O)=O", "note": "(centres unmarked) [Compound 11B]", "values": [{"measurement": "kinact/KI", "setting": "[1]; Table 3", "value": 220, "unit": "M⁻¹ s⁻¹"}, {"measurement": "kinact/KI", "setting": "cathepsin G (Cath G); Table 3", "value": 2680, "unit": "M⁻¹ s⁻¹"}]}, {"smiles": "O=C(/C=C/Sc1ccccc1)OCN1C(=O)C(Cc2ccccc2)CS1(=O)=O", "note": "(centres unmarked) [Compound 7C]", "values": [{"measurement": "kinact/KI", "setting": "[1]; Table 4", "value": 240, "unit": "M⁻¹ s⁻¹"}, {"measurement": "kinact/KI", "setting": "cathepsin G (Cath G); Table 4", "value": 5520, "unit": "M⁻¹ s⁻¹"}]}, {"smiles": "CN1C(Cc2ccccc2)C(=O)N(CF)S1(=O)=O", "note": "(centres unmarked) [drawing 93 R = methyl]", "values": [{"measurement": "% Proteinase-3 Inhibition", "setting": "Proteinase-3", "value": 55, "unit": "%"}]}, {"smiles": "O=C(CN1[C@@H](Cc2ccccc2)C(=O)N(CF)S1(=O)=O)OCc1ccccc1", "note": "[Compound 5A, (S) -Benzyl-5(benzyloxycarbonylmethyl)-2-fluoromethyl-3-oxo-1,2,5-thiadiazolidine 1.1-dioxide]", "values": [{"measurement": "kinact/KI", "setting": "[1]; Table 2", "value": 810, "unit": "M⁻¹ s⁻¹"}, {"measurement": "time-dependent loss of serine protease activity", "setting": "cathepsin G (Cath G); FIG. 6, Cath G 1.48 μM, inhibitor 1.48 μM, 0.1M HEPES pH 7.5, 1% DMSO", "value": "time-dependent loss of serine protease activity"}]}, {"smiles": "CC(C)(C)OC(=O)N[C@H](Cc1ccccc1)C(=O)OCN1C(=O)C(Cc2ccccc2)CS1(=O)=O", "note": "(some centres unmarked) [Compound 4B]", "values": [{"measurement": "kinact/KI", "setting": "[1]; Table 3", "value": 1140, "unit": "M⁻¹ s⁻¹"}, {"measurement": "kinact/KI", "setting": "cathepsin G (Cath G); Table 3", "value": 260, "unit": "M⁻¹ s⁻¹"}]}, {"smiles": "C[C@H](NC(=O)OCc1ccccc1)C(=O)OCN1C(=O)C(Cc2ccccc2)CS1(=O)=O", "note": "(some centres unmarked) [Compound 8B]", "values": [{"measurement": "kinact/KI", "setting": "[1]; Table 3", "value": 50, "unit": "M⁻¹ s⁻¹"}, {"measurement": "kinact/KI", "setting": "cathepsin G (Cath G); Table 3", "value": 2770, "unit": "M⁻¹ s⁻¹"}]}, {"smiles": "O=C(N[C@@H](Cc1ccccc1)C(=O)OCN1C(=O)C(Cc2ccccc2)CS1(=O)=O)OCc1ccccc1", "note": "(some centres unmarked) [Compound 1B]", "values": [{"measurement": "kinact/KI", "setting": "[1]; Table 3", "value": 110, "unit": "M⁻¹ s⁻¹"}, {"measurement": "kinact/KI", "setting": "cathepsin G (Cath G); Table 3", "value": 20, "unit": "M⁻¹ s⁻¹"}]}, {"smiles": "CC(C)(C)OC(=O)CN1[C@@H](Cc2ccccc2)C(=O)N(CF)S1(=O)=O", "note": "[Compound 4A, (S)-4-Benzyl-5(tert-butoxycarbonylmethyl)-2-fluoromethyl-3-oxo-1,2,5-thiadiazolidine 1.1-dioxide]", "values": [{"measurement": "kinact/KI", "setting": "[1]; Table 2", "value": 490, "unit": "M⁻¹ s⁻¹"}, {"measurement": "inhibition of Cath G (in words)", "setting": "cathepsin G (Cath G)", "value": "an inhibitor of Cath G"}, {"measurement": "Total Number of Cells Lavaged at 4 Hours, Lymphocytes", "setting": "[2]; Experiment 2, starch", "value": "6.5 × 10^6"}, {"measurement": "Total Number of Cells Lavaged at 4 Hours, Macrophages Monocytes", "setting": "[2]; Experiment 2, starch", "value": "6.5 × 10^6"}, {"measurement": "Total Number of Cells Lavaged at 4 Hours, Neutrophils", "setting": "[2]; Experiment 2, starch", "value": "41.0 × 10^6"}, {"measurement": "Total Number of Cells Lavaged at 4 Hours, Total Cells", "setting": "[2]; Experiment 2, starch", "value": "54 × 10^6"}, {"measurement": "Abdominal Lavage Cell Distribution, Lymphocytes", "setting": "[2]; Experiment 2, starch, 4 hours", "value": 12, "unit": "%"}, {"measurement": "Abdominal Lavage Cell Distribution, Macrophages Monocytes", "setting": "[2]; Experiment 2, starch, 4 hours", "value": 12, "unit": "%"}, {"measurement": "Abdominal Lavage Cell Distribution, Neutrophils", "setting": "[2]; Experiment 2, starch, 4 hours", "value": 76, "unit": "%"}, {"measurement": "effect on neutrophil diapedesis (in words)", "setting": "[2]; rat", "value": "did not inhibit neutrophil diapedesis associated with peritonitis"}]}]}
